Results reported in a melting point compilation (Tetko et al.; mined from patent text by program, amines drawn as free bases though some values may be those of a salt).

Row | Compound | melting point [°C]
1 | OCC=Cc1ccc(Br)cc1F | 38 to 40
2 | O=C(O)CCCCCCC(=O)c1cccnc1 | 113 to 115
3 | CCCOc1ccccc1NC=C1C(=O)N(c2ccc(C(=O)O)cc2)N=C1C | 260
4 | CC(C)(C)OC(=O)NC1CCN(CC(F)(F)F)CC1 | 99.2 to 99.8
5 | Clc1ccc([C@@]2(Cn3ccnc3)OC[C@H](COc3ccc4c(c3)CCN(Cc3ccc(-c5ccccc5)cc3)C4)O2)c(Cl)c1 (racemic) | 103 to 105
6 | OCc1cc2cccc(Br)c2s1 | 82 to 83
7 | CS(=O)c1ccc(C2ON2S(=O)(=O)c2ccccc2)cc1 (configuration not stated) | 115 to 118
8 | CCCNC(=S)c1ccc2c(c1)N([C@H](C)CN1CCC[C@@H](C)C1)c1ccccc1S2 (racemic) | 126
9 | C[C@]12CCC(=O)N[C@@H]1CCc1cc(C=O)ccc12 | 185 to 189
10 | CCn1cc(Br)nc(N)c1=O | 227 to 230
11 | COC(=O)c1ccc(C=CC(=O)C=Cc2ccc(C(=O)OC)cc2)cc1 | 206 to 210
12 | O=C1CCCc2nc3ccccc3c(NCc3cccc(C(F)(F)F)c3)c21 | 147 to 149
13 | CCOC(=O)c1cccc(-c2ccc(F)c3cc(CBr)sc23)c1 | 139 to 140
14 | CCC(O)(CC)CC/C=C(\C)c1ccc(COc2ccc(CO)c(CO)c2)s1 | 100 to 102
15 | CSc1ccc(-c2coc3ccc(-c4nnc(C)o4)cc23)c(Cl)c1 | 153 to 154
16 | CC1(C)CC(=O)c2c(-c3ccccc3)sc(C#N)c2C1 | 100 to 103
17 | CC(C)S(=O)(=O)Nc1ccc(C(=O)Nc2ccc(Br)cc2)cc1 | 213 to 214
18 | O=S(CCCCCCOc1ccc(C2=C(c3ccccc3)CCCc3cc(O)ccc32)cc1)CCCC(F)(F)C(F)(F)F (configuration not stated) | 121
19 | CC(C)(C)c1cc(Sc2nnc(NC(=N)N)s2)cc(C(C)(C)C)c1O | 248 to 249
20 | CCC(C(OC)OC)N(C1CCCCC1)C1CCCCC1 (configuration not stated) | 73.5 to 74.2
21 | C#CC1(O)CN2CCC1CC2 (configuration not stated) | 199 to 202
22 | CCCCc1nc(I)c(C=O)n1Cc1ccc(C(=O)OC)c2ccccc12 | 178 to 179
23 | CCOC(=O)Cn1ncc(-c2ccccn2)c1-c1ccccc1 | 98 to 100
24 | COC(=O)COc1cccc2c1c(C(=O)C(N)=O)c(C)n2Cc1cccc2ccccc12 | 188 to 190
25 | CCN(CC)C(=O)c1ccc(C(=C2CCN(Cc3ccccc3)CC2)c2cccc(OC)c2)cc1 | 100 to 110
26 | C=Cc1ccc(-c2ncccc2S(=O)(=O)Nc2ncc(C)nc2OC)cc1 | 110 to 112

Row | Compound | melting point [°C]
27 | CC(=O)Nc1ncc(Sc2ccc(O)cc2)s1 | 265 to 267
28 | CCn1cc(CN(C(=O)C2CCCc3ccc(O)cc32)c2ccc(C(C)C)cc2)cn1 (configuration not stated) | 169 to 170
29 | COc1ccnc(C(=O)N[C@H]2COC(=O)[C@H](CC(=O)OC(C)(C)C)[C@@H](OC(=O)C(C)C)[C@H](C)OC2=O)c1O | 192 to 194
30 | CCCCN(Cc1ccc(-c2ccccc2-c2nnn[nH]2)cc1)c1ncc(C(=O)OCC)s1 | 65 to 70
31 | COC(=O)C#CC(=O)c1ccc(Cl)cc1 | 49 to 50
32 | Cc1ccc([N+](=O)[O-])c(C)c1C1OCCO1 | 69 to 71
33 | CNc1ccc(N)cc1C(=O)n1nc(O)c2ccccc21 | 184 to 186
34 | CCc1cc(C(N)=O)nn1C | 170 to 172
35 | CC1(C)CC(=O)C2=C(C1)NC1=C(C(=O)CC(C)(C)C1)C2c1cccc(OCc2ccncc2)c1 | 156 to 158
36 | CCCc1nn(C)c2c(=O)n(CCOc3ccc(SC(C)(C)C(=O)OCC)cc3)c(C)nc12 | 106 to 108
37 | Cn1c(C(F)(F)F)cc(=O)n(-c2c(F)cc(Cl)c3cc(CS(C)(=O)=O)oc23)c1=O | 209 to 211
38 | O=c1[nH]c2ncc(Cl)cc2o1 | 184 to 186
39 | N#Cc1oc2cc(Cl)ccc2c1O | 205
40 | COc1ccc(N2CCN(CCC3OCCc4ccc(C(N)=O)cc43)CC2)cc1 (configuration not stated) | 178 to 180
41 | O=C(O)C1=Cc2cc(-c3ccc4c(c3)OCO4)ccc2SCC1 | 227 to 229
42 | CC(=O)c1ccc(S(=O)(=O)n2c(CCC(=O)O)cc3cc(Cl)ccc32)cc1 | 159 to 161
43 | CC1(C)Oc2ccc(OCc3nc4cc(F)c(F)cc4s3)cc2[C@H](O)[C@@H]1c1cccc(NS(=O)(=O)C(F)(F)F)c1 | 191 to 193
44 | NS(=O)(=O)c1cc2cc(CCOCc3ccccc3)ccc2s1 | 136 to 138
45 | CCCCc1nc(CO)c(C(=O)O)n1Cc1ccc(-c2ccccc2-c2nnn[nH]2)cc1 | 215 to 217
46 | CC(C)(C)OC(=O)N[C@@H]1C[C@H](CO)[C@@H](O)C1 | 126 to 128
47 | COc1cc2c(c(OC(C)=O)c1)C1CCC3(C)C(OC(C)=O)=CCC3C1CC2 (configuration not stated) | 118
48 | O=NSC1(C2OCCCO2)CCCCC1 | 34 to 36
49 | Cn1c(CO)nc2cc(Cl)cnc21 | 141 to 142
50 | COc1cccc2c1CCC1C(=O)OC(=O)C21 (configuration not stated) | 138 to 140
51 | Sc1nccn1Cc1cccs1 | 130 to 131
52 | CN(C)c1ccc(S(=O)(=O)N2CCCCC2=O)cc1 | 165 to 170

Row | Compound | melting point [°C]
53 | COC(=O)c1ccc(C=C2CCn3c2nc2cc([N+](=O)[O-])ccc2c3=O)cc1 | 264 to 266
54 | O=C(O)c1ccc(-c2ncn(-c3ccc(C(F)(F)C(F)(F)C(F)(F)F)cc3)n2)cc1 | 225
55 | CC1(O)CCN(Cc2ccc(C#CC(=O)Nc3ccc(-c4ccc(Cl)cc4)cc3)cc2)CC1 | 192 to 193
56 | CCOC1Cc2cc3ccc(=O)oc3c(OC)c2O1 (configuration not stated) | 119 to 120
57 | Cn1nc(C(F)F)[nH]c1=O | 141
58 | NCC(O)C(Oc1ccc(C(F)(F)F)cc1)c1ccccc1 (configuration not stated) | 120 to 122
59 | CS(=O)(=O)c1ccc(C2=C(c3ccccc3)C(=O)N(C3CC3)C2)cc1 | 144 to 146
60 | CC(C)c1ccc(N(Cc2cnn(C3CCCC3)c2)C(=O)C2CCCc3c(O)cccc32)cc1 (configuration not stated) | 173
61 | Cn1c(Oc2cccc(N=C=S)c2)nc2ccccc21 | 121 to 124
62 | O=C(Nc1sc2c(c1S(=O)(=O)O)CCCC2)C1CC1 | 225 to 230
63 | CCC1(CCCCN2CCN(c3ccc(F)cc3)CC2)C(=O)Nc2ccccc21 (configuration not stated) | 118 to 119
64 | CN(C)c1ncc(C(=O)N2CCOC(c3cccc(O)c3)C2)c(-c2ccccc2)n1 (configuration not stated) | 140
65 | CCOc1nn(Cc2ccnc(OCc3nc(-c4ccccc4)oc3C)c2)cc1CCC(=O)O | 114 to 115
66 | Cc1oc(-c2ccc(C(F)(F)F)cc2)nc1-c1cccc(-c2ccc(OCC(=O)O)cc2)c1 | 178 to 179
67 | CCCCCCCCCCCCCCOc1ccc(C(=O)N(CC(=O)OC)CC(=O)OC)cc1OCCCCCCCCCCCCCC | 70 to 71
68 | CCn1c(-c2ccc(Cl)cc2)nn(C)c1=O | 73 to 75
69 | N#CC1(CCNC(=O)C(Cl)Cl)CCCCC1 | 109 to 114
70 | CCCc1nn(C)c2c(=O)n(CCNc3ccc(OC(C)(C)C(=O)O)cc3)c(C)nc12 | 88 to 90
71 | CCCCCP(=O)(CC(=O)OC)OCc1ccc(-c2ccccc2C(=O)O)cc1 (configuration not stated) | 101 to 102
72 | Cc1ccc(NC(=O)C(C)(C)CCCOc2cc(C)ccc2C)c(C)c1 | 80 to 82
73 | S=c1nc2c(Cl)cccn2c(=S)n1-c1ncccc1Cl | 120 to 122
74 | O=C(OCC(=O)c1ccccc1[N+](=O)[O-])c1ccccc1 | 77 to 80
75 | O=C(Nc1ccc(N2CCN(C(=O)C(F)(F)F)CC2)cc1)C(F)(F)F | 193 to 194
76 | O=C(CF)Cc1ccc(Cl)cc1Cl | 48 to 52
77 | O=C(c1ccc(O)cc1)c1ccc(OCCO)cc1 | 146 to 147
78 | CC(C)NC(C)CC1=C2c3ccc(O)cc3CCC2CCNC1=O (configuration not stated) | 202 to 204

Row | Compound | melting point [°C]
79 | CC(C)c1ccc(S(=O)(=O)n2c(CO)cc3cc(C(F)(F)F)ccc32)cc1 | 112
80 | O=C(NS(=O)(=O)c1ccc(Oc2cccc(C(F)(F)F)c2)cc1)c1ccc(C(=O)NCCO)nc1 | 167 to 168
81 | CNC(=O)c1ccc(C)c(-n2c(C)cc(OCc3ccccc3CNC(=O)Nc3cc(C(C)(C)C)nn3-c3ccc(Cl)c(O)c3)c(Cl)c2=O)c1 | 201 to 203
82 | CC(C)(C)c1cc(Cc2ccc(Cl)nn2)c(O)c(C(C)(C)C)c1 | 143 to 144
83 | Nc1nc2cc(Cl)c(Cl)c(Cl)c2[nH]1 | 255 to 258
84 | CC1(C)CCC(C)(C)c2cc3c(cc21)CCC=C3Cc1ccc(C(=O)O)cc1 | 212 to 214
85 | NC(=O)c1c(O)cccc1OCCBr | 120 to 121
86 | CN(c1cccc2c(Cl)c(-c3nccs3)[nH]c12)S(=O)(=O)c1cccs1 | 222 to 223
87 | CC(C)CC1(C)NCCNC1=O (configuration not stated) | 79 to 82
88 | Cc1cc(OS(=O)(=O)c2c(F)cccc2F)cc2c(C3CCN(C)CC3)cn(C)c12 | 139
89 | COc1ccnc(C(C)Sc2nc3cc(OC(F)F)c(OC)cc3[nH]2)c1 (configuration not stated) | 128 to 131
90 | c1ccc(-n2c3c(c4ccccc42)CCNCC3)cc1 | 174 to 180
91 | CCOC(=O)C1=C(CO)NC(C)=C(C(=O)OCCOCc2ccccc2)C1c1ccccc1[N+](=O)[O-] (configuration not stated) | 96 to 97
92 | Nc1n[nH]c2nc3cc(O)ccc3cc12 | > 300
93 | Cc1ccc2c(c1)C(O)(C1=CCN(C)CC1)CC2c1ccc(F)cc1 (configuration not stated) | 176 to 178
94 | CC1CN(c2ccccc2)C(=O)N(c2cccc(C(F)(F)F)c2)C1 (configuration not stated) | 121 to 123
95 | Cc1ccc(Oc2ccc(C#N)cc2)c(O)c1 | 118 to 119
96 | C=CCOC(=O)c1cccc(NC(=O)NCC(=O)N(CC(=O)OC(C)(C)C)c2ccccc2C(=O)c2ccccc2)c1 | 105 to 107
97 | O=CN1CCN(c2nn(-c3ccccc3)c3ccccc23)CC1 | 130 to 132
98 | CC(C)(C)OC(=O)NCC1=CC(c2ccccc2)Cc2c1ccc(OC(=O)C(C)(C)C)c2OC(=O)C(C)(C)C (configuration not stated) | 64 to 69
99 | CCCCc1cn(Cc2ccc(-c3ccccc3C(=O)O)cc2)c2c(c1=O)CCCC2 | 260
100 | COc1cc(CO)c([N+](=O)[O-])cc1OCCCC(=O)O | 172 to 175
101 | N#Cc1ccc2[nH]c3ccccc3c2c1 | 180 to 181
102 | O=C(O)c1cc2n(c1)CCCC2 | 131 to 134
